Assay [1] addresses recombinant human Myt1 (full length PKMYT1) (Homo sapiens (Human), UniProt Q99640). Put plainly: Recombinant human Myt1 kinase assay (ADP-Glo). The following applies: 10 μM ATP. It is filed as biochemical. A digest of the protocol: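 ADP-Glo luminescence measured ATP hydrolysis by recombinant full-length PKMYT1 (18 nM) after 60 min at 30 °C with 10 μM ATP. Compounds in 0.5% DMSO were added to the enzyme 15 min before ATP, at 22 °C, in HEPES/MgCl2/MnCl2 buffer. IC50 and percent maximal inhibition were derived.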

Assay [2] deals with PKMYT1 (CDK1 pThr14) in FUOV1 cells. Put plainly: PKMYT1 cell-based activity assay, CDK1 pThr14 AlphaLISA in FUOV1 cells. The following applies: 2 h, 2 h compound incubation, read-out: FUOV-1 CDK1 pThr14 IC50. Summed up: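 IC50 was derived from AlphaLISA signal (excitation 680 nm, emission 615 nm) for phospho-Thr14 CDK1 in lysates. The detection antibodies were rabbit anti-pThr14 and mouse anti-total CDK1, each at 5 nM. FUOV1 ovarian cells were exposed to compound for 2 hours before lysis.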

recombinant human Myt1 (full length PKMYT1), sequence (Q99640 whole entry): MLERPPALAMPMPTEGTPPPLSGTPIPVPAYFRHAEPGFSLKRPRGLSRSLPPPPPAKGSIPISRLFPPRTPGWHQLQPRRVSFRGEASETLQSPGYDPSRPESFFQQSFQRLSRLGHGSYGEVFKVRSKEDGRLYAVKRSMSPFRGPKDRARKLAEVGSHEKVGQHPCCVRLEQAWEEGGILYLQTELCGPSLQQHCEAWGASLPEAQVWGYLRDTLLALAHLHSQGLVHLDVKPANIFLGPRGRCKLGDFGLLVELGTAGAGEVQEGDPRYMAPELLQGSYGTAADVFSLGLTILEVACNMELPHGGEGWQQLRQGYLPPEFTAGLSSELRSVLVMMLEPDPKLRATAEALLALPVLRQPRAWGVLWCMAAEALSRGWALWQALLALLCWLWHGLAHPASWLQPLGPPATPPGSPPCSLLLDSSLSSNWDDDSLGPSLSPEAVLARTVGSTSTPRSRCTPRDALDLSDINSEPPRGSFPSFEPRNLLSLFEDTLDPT

For `Cc1ccc2[nH]ncc2c1-c1nc(-c2ccccc2NCC2(C)CC2)nc(C(N)=O)c1N` [Compound 452], the IC50 amounted to 16 nM in assay [1] and 124 nM in assay [2].
On to `Cc1ccc2[nH]ncc2c1-c1nc(-c2ccccc2NC2CCC(F)(F)CC2)nc(C(N)=O)c1N` [Compound 453], for which the figures for the IC50 in assay [1] and in assay [2] were 12 nM and 317 nM, respectively.
Regarding `Cc1ccc2[nH]ncc2c1-c1nc(-c2ccc(C(F)(F)F)cc2NC(=O)C2(C)CC2)nc(C(N)=O)c1N` [Compound 454, 5-amino-6-(5-methyl-1H-indazol-4-yl)-2-(2-(1-methylcyclopropane-1-carboxamido)-4-(trifluoromethyl)phenyl)pyrimidine-4-carboxamide], the IC50 in assay [1] is 26 nM; in assay [2], 447 nM.
For `COc1ccc(-c2nc(C(N)=O)c(N)c(-c3c(C)ccc4[nH]ncc34)n2)c(NC(=O)C2(C)CC2)c1` [Compound 455], the IC50 in assay [1] is 6 nM; in assay [2], 21 nM.
`Cc1ccc2[nH]ncc2c1-c1nc(-c2cccc(F)c2NC(=O)C2(C)CC2)nc(C(N)=O)c1N` [Compound 456]: the IC50 in assay [1] was determined as 6 nM; in assay [2], 158 nM.
Take `Cc1cccc(NC(=O)C2(C)CC2)c1-c1nc(C(N)=O)c(N)c(-c2c(C)ccc3[nH]ncc23)n1` [Compound 457]: the results for the 50% inhibitory concentration (IC50) in assay [1] and in assay [2] were 516 nM and greater than 10000 nM, respectively.
On to `Cc1ccc2[nH]ncc2c1-c1cc2c(oc3cccnc32)c(C(N)=O)c1N` [Compound 458, 7-amino-8-(5-methyl-1H-indazol-4-yl)benzofuro[3,2-b]pyridine-6-carboxamide], for which the figures for the concentration for half-maximal inhibition (IC50) in assay [1] and in assay [2] were 2 nM and 142 nM, respectively.
For the compound `CC1(C(=O)Nc2cc(F)c(F)cc2-c2nc(C(N)=O)c(N)c(-c3c(Cl)ccc4[nH]ncc34)n2)CC1` [Compound 459], the IC50 worked out at 9 nM in assay [1] and 44 nM in assay [2].
The corresponding values for `Cc1ccc2[nH]ncc2c1-c1nc(-c2ccccc2NC(=O)c2cccc(F)c2)nc(C(N)=O)c1N` [Compound 460] are 10 nM and 825 nM.
On the same counts, the results for `Cc1ccc2[nH]ncc2c1-c1nc(-c2ccccc2NC(=O)C2(F)CC2)nc(C(N)=O)c1N` [Compound 461] are 3 nM and 6 nM.
Take `Cc1ccc2[nH]ncc2c1-c1nc(-c2ccccc2NC(=O)C2(C)CC(F)(F)C2)nc(C(N)=O)c1N` [Compound 462]: the results for the IC50 in assay [1] and in assay [2] were 4 nM and 137 nM, respectively.
Turning to `Cc1ccc2[nH]ncc2c1-c1nc(-c2ccccc2NC(=O)C2(C)CC2(Cl)Cl)nc(C(N)=O)c1N` (stereo not drawn) [Compound 463], the IC50 in assay [1] is 8 nM; in assay [2], 278 nM.
As to `COCCNc1ccccc1-c1nc(C(N)=O)c(N)c(-c2c(C)ccc3[nH]ncc23)n1` [Compound 464], the IC50 in assay [1] is 3 nM; in assay [2], 370 nM.
The corresponding values for `Cc1ccc2[nH]ncc2c1-c1nc(-c2cnccc2NC(=O)OC(C)(C)C)nc(C(N)=O)c1N` [Compound 465] are 5 nM and 233 nM.
In the case of `Cc1ccc2[nH]ncc2c1-c1nc(-c2cc(F)c(F)cc2NC2CCOCC2)nc(C(N)=O)c1N` [Compound 466, 5-amino-2-(4,5-difluoro-2-((tetrahydro-2H-pyran-4-yl)amino)phenyl)-6-(5-methyl-1H-indazol-4-yl)pyrimidine-4-carboxamide], the results for the IC50 in assay [1] and in assay [2] were 6 nM and 77 nM, respectively.
In the case of `Cc1ccc2[nH]ncc2c1-c1nc(-c2cc(F)c(F)cc2NCC(F)F)nc(C(N)=O)c1N` [Compound 467], the IC50 in assay [1] was 6 nM; in assay [2] it was 106 nM.
The corresponding values for `NC(=O)c1nc(-c2cc(F)c(F)cc2NCC(F)F)nc(-c2c(Cl)ccc3[nH]ncc23)c1N` [Compound 468] are 6 nM and 228 nM.
As to `Cc1ccc2[nH]ncc2c1-c1nc(-c2cccnc2N)nc(C(N)=O)c1N` [Compound 469], the IC50 in assay [1] was 12 nM; in assay [2], 540 nM.
